Measured values reported in ChEMBL document CHEMBL3351324, “Impact of Stereochemistry on Ligand Binding: X-ray Crystallographic Analysis of an Epoxide-Based HIV Protease Inhibitor” (ACS Med Chem Lett, 2014).
pIC50: −log10 of the molar value. Activity calls are given as the source filed them. No cut-off for these calls is given here.

Experiments:
[1] = biological target: Protease (Human immunodeficiency virus 1) (UniProt Q9YQ12); assay: Covalent inhibition of HIV1 protease assessed as covalent modification of enzyme residues by ESI-MS method
[2] = biological target: Protease (Human immunodeficiency virus 1) (UniProt Q9YQ12); assay: Time dependent inhibition of HIV1 protease by standard fluorimetric assay
[3] = biological target: Protease (Human immunodeficiency virus 1) (UniProt Q9YQ12); assay: Inhibition of HIV1 protease assessed as compound epoxide ring interaction with enzyme active site by X-ray crystallography
Protease = Protease (Human immunodeficiency virus 1, UniProt Q9YQ12); assay: Inhibition of HIV1 protease by standard fluorimetric assay
[4] = biological target: Protease (Human immunodeficiency virus 1) (UniProt Q9YQ12); assay: Irreversible inhibition of HIV1 protease by standard fluorimetric assay

- inhibition [1]: inactive
- inhibition [2]: inactive
- inhibition [3]: Active
- pIC50 (Protease): 6.17
- inhibition [4]: inactive
SMILES: CC(C)[C@H](NC(=O)COc1ccccc1)C(=O)N[C@@H](Cc1ccccc1)[C@@H](O)[C@@H]1O[C@H]1Cc1ccccc1
